Experimental data as given in ChEMBL document CHEMBL1201862, “PubChem BioAssay data set” (2004).
The source made the active and inactive calls. Cut-off read from the data, not from the text of the source: actives have a measured IC50 and inactives only a lower limit.

Molecular target: T1, Apoptotic protease-activating factor 1 (Homo sapiens, UniProt O14727)
T1 sequence (O14727 whole entry): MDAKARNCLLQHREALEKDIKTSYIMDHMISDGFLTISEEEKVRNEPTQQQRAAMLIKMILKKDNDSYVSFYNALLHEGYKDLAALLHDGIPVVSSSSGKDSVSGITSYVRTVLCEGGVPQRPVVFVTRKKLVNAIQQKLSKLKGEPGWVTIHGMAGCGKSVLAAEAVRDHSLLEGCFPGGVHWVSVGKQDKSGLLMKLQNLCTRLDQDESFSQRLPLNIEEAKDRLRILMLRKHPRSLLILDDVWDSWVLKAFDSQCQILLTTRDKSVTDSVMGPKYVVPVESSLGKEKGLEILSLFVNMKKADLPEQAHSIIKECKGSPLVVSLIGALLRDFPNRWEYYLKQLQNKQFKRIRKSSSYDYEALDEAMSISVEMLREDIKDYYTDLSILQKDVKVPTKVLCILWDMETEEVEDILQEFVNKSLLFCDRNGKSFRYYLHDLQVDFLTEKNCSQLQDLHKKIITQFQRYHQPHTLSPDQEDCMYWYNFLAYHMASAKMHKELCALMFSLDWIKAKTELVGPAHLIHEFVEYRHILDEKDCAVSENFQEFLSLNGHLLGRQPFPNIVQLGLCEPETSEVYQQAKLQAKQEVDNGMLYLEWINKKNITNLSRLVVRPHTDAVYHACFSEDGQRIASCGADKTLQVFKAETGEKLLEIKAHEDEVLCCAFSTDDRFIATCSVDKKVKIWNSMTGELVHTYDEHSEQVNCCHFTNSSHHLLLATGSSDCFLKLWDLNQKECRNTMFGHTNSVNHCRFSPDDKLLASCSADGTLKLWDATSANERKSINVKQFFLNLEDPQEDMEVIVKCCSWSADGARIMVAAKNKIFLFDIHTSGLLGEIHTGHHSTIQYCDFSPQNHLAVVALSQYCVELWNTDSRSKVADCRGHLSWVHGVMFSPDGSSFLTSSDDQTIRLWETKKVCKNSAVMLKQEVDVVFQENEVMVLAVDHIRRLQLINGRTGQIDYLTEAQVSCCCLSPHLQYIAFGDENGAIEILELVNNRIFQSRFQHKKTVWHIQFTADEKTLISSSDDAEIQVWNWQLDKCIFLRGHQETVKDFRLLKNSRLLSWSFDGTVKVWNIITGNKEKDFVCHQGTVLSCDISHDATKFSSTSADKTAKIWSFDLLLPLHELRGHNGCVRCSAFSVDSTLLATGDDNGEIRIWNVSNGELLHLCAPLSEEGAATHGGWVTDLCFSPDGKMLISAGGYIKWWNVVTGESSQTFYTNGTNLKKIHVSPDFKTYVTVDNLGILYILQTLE
Assay type: functional

With CC(C)C(C(=O)O)N1C(=O)/C(=C/C=C/c2ccco2)SC1=S (stereo unspecified) as the molecule, how does the IC50 read?
The IC50 was > 100 µM (inactive).
